According to article PMC9957399, “New Insights into the Inhibition of Hesperetin on Polyphenol Oxidase: Inhibitory Kinetics, Binding Characteristics, Conformational Change and Computational Simulation” (Foods, 2023):
Marks after values point to notes of the source that are not given here.

How the values were obtained:
monophenolase = molecular target: monophenolase; set-up: method as in PMID 28873682; conditions: previous study; read-out: IC50 on the inhibition of monophenolase activity; cited from earlier work
PPO [1] = system: PPO; set-up: method as in PMID 22093614; conditions: cited from earlier work
PPO [2] = molecular target: PPO (Agaricus bisporus, UniProt C7FF04); assay: Kinetic analysis of inhibitory type (v vs [PPO], Lineweaver–Burk plots, L-dopa); format: biochemical, mushroom; conditions: for inhibitory type: Lineweaver–Burk plots, hesperetin 0, 300, 600, 1200 μM
Sequence of PPO (Agaricus bisporus, UniProt C7FF04) (C7FF04 1-392): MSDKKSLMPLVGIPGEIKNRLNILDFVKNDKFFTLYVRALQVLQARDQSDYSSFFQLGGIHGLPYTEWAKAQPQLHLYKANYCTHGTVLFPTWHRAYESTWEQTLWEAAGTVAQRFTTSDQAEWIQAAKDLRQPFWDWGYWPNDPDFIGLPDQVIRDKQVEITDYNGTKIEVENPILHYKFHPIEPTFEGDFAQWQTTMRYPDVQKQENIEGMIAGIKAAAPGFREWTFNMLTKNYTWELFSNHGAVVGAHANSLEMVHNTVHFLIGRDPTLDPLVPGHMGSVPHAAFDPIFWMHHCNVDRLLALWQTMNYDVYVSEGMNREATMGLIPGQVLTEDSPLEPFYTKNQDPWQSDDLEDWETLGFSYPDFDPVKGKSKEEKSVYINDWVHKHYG
Sequence of PPO (Agaricus bisporus, UniProt C7FF04) (G1K3P4 entry or part of it, further chain): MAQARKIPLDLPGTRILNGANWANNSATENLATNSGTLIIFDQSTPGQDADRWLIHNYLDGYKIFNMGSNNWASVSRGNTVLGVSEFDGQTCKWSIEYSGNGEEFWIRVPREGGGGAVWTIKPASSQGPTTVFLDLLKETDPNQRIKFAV
Source text: The inhibitory type of hesperetin against PPO could be evaluated using Lineweaver–Burk plots, and the mixed inhibition was described through Equation (1):(1) 1/v=Km/Vmax(1+[I]/Ki)1/[S]+1/Vmax(1+[I]/αKi) where v and Vmax represent enzyme reaction velocity and its maximum value, respectively. [I], [S] and Km are the concentrations of hesperetin and L-dopa, and the Michaelis–Menten constant, respectively. α denotes the apparent coefficient and Ki represents dissociation constant of hesperetin binding with free PPO, which can be calculated using the secondary Equations (2) and (3). (2) Slope=Km/Vmax+Km[I]/VmaxKi (3) Y-intercept=1/Vmaxapp=1/Vmax+1/αVmaxKi[I]
At different concentrations of hesperetin, the effect on the enzymatic reaction rate (ΔOD/min) by increasing the concentrations of PPO were shown in Figure 1E. […] As the concentration of hesperetin increased, the slopes of the lines declined.
Four lines intersected in the second quadrant. Either the slopes or the Y-intercept of four lines augmented with the rising concentrations of hesperetin, which represented the values of Km increased in a concentration-dependent manner while that of Vmax decreased. […] The inhibition mechanism of hesperetin against PPO deserved further exploration. […] Thus, hesperetin may have a better chance to bind with free PPO instead of PPO–hesperetin complex.

PPO [3] = system: T1, PPO; assay: Fluorometric titration (fluorescence quenching of PPO); format: binding, mushroom
T1 construct: purchased Worthington Biochemical Co. (Lakewood, CO, USA)
Description: Fluorescence spectra were measured at 298, 304 and 310 K by a fluorophotometer (F–7000, Hitachi, Tokyo, Japan). Briefly, the concentration of PPO was 2.0 μM, and the same volume of hesperetin was added into the PPO solution (2.0 mL) 10 times (0→25.0 μM). After each addition of hesperetin, 3 min was timed to equilibrate the mixed system. Then, the emission spectra (290–500 nm) were scanned at fixed excitation wavelength (280 nm).
To deduct the effect of internal filtration, all measured fluorescence data were processed through Formula (5):(5) FC=FMe^(A1+A2)/2 where FC and FM represent the corrected and detected fluorescence, respectively. A1 and A2 stand for the absorbance values of hesperetin at excitation and emission wavelengths, respectively.
The Stern–Volmer curves for PPO fluorescence quenched by hesperetin at each temperature were obtained through Equation (6):(6) F0/F=1+Kqτ0[Q]=1+Ksv[Q] where F and F0 denote the fluorescence intensity of PPO with and without hesperetin, respectively. Ksv, Kq and [Q] represent the fluorescence quenching constant, quenching rate constant and the concentration of hesperetin, respectively. τ0 represents the average fluorophore lifetime without hesperetin, and its value is usually equal to 10^−8 s.
Based on the following equation, the information about the interaction between hesperetin and PPO were obtained, including binding constant (Ka) and binding number (n):(7) logF0−F/F=nlogKa−nlog1/[Qt]−(F0−F)[Pt]/F0 where [Qt] and [Pt] stand for the concentrations of hesperetin and PPO. […] The n values at 298, 304 and 310 K were all equal to 1, implying that only one site existed when hesperetin interacted with PPO.
The values of ΔH°, ΔS° and ΔG°, which refer to enthalpy change, entropy change and free energy change, respectively, were obtained by the van ’t Hoff equations [42]:(8) logKa=−ΔH°/2.303RT+ΔS°/2.303R (9) ΔG°=ΔH°−TΔS° where T represents temperature; R represents gas constant, and its value is 8.314 J mol^−1 K^−1.

PPO (monophenolase) = PPO (monophenolase) (Agaricus bisporus, UniProt C7FF04); assay: PPO activity assay, monophenolase (L-tyrosine oxidation); format: biochemical, mushroom
Sequence of PPO (monophenolase) (C7FF04 1-392): as the sequence (C7FF04 1-392) above
Sequence of PPO (monophenolase) (G1K3P4 1-150 partner): as the sequence (G1K3P4 entry or part of it, further chain) above
Description: To determine the monophenolase inhibitory activity of hesperetin, PPO (0.2 μΜ) was mixed with various concentrations of hesperetin (0, 25, 50, 100, 150, 200, 250 and 500 μM), and the mixtures were incubated at 30 °C. After 1 h, L-tyrosine (0.5 mΜ, substrate) was added to the mixtures, and the detection began.

Q: For `O=c1c(O)c(-c2ccc(O)c(O)c2)oc2cc(O)cc(O)c12` [quercetin], which IC50 (monophenolase) is on record?
A: The IC50 was 19.4 ± 0.35 µM.

Q: Which results are given for `COc1ccc([C@@H]2CC(=O)c3c(O)cc(O)cc3O2)cc1O` [hesperetin, Hesperetin]?
A: inhibitory type (previous study) (PPO [1]): competitive PPO inhibitor; α (apparent coefficient) (PPO [2]; L-dopa substrate, mixed inhibition model): 2.93; inhibitory type (PPO [2]): mixed-type inhibitor; inhibitory type (PPO [2]; listed as Hesperetin): mixed inhibitor; reversibility of inhibition (PPO [2]; plots of v versus [PPO], L-dopa 0.5 mM): reversibly inhibited; Kq (quenching rate constant) (PPO [3]; 298, 304 and 310 K, τ0 = 10^−8 s, compared with maximum diffusion collision quenching constant): > 2e+10 L/mol/s; Ka (PPO [3]; 298 K): 19800 L/mol; Ka (binding constant) (PPO [3]; 298 K): 1.98 ± 0.01 ^a ×10^4 L mol^−1; Ksv (PPO [3]; 298 K): (1.71 ± 0.01) × 10^4 L mol^−1; Ksv (quenching constant) (PPO [3]; 298 K): 1.71 ± 0.01 ^a ×10^4 L mol^−1; n (number of binding sites) (PPO [3]; 298 K): 1.23 ± 0.03; Ka (PPO [3]; 304 K): 20500 L/mol; Ka (binding constant) (PPO [3]; 304 K): 2.05 ± 0.02 ^b ×10^4 L mol^−1; Ksv (PPO [3]; 304 K): (1.76 ± 0.02) × 10^4 L mol^−1; Ksv (quenching constant) (PPO [3]; 304 K): 1.76 ± 0.02 ^b ×10^4 L mol^−1; n (number of binding sites) (PPO [3]; 304 K): 1.08 ± 0.01; Ka (PPO [3]; 310 K): 22200 L/mol; Ka (binding constant) (PPO [3]; 310 K): 2.22 ± 0.05 ^c ×10^4 L mol^−1; Ksv (PPO [3]; 310 K): (2.09 ± 0.02) × 10^4 L mol^−1; Ksv (quenching constant) (PPO [3]; 310 K): 2.09 ± 0.02 ^c ×10^4 L mol^−1; n (number of binding sites) (PPO [3]; 310 K): 0.99 ± 0.04; n values (PPO [3]; at 298, 304 and 310 K): 1; lag time of L-tyrosine oxidation (PPO (monophenolase); hesperetin at 500.0 μM, extended from 1.08 min without inhibitor): 10.33 min; remaining activity at 100 µM (PPO (monophenolase); read-out: residual activity of PPO (monophenolase)): 41.2%
